The METLIN SMRT retention time set (Domingo-Almenara et al. 2019)

Assay: gradient 5% acetonitrile 3 min, to 50% in 2 min, to 85% in 15 min, held 3 min, 100 µL/min
Details: column: Zorbax Extend-C18 2.1 x 50 mm; eluents: water / acetonitrile, 0.1% formic acid
In short: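 Retention times of pure standards were taken from adduct peaks that were selected by computer and manually inspected. Over 3 months, mixtures of ~100 molecules were run by HPLC–quadrupole time-of-flight mass spectrometry in positive and negative ionization mode. The Zorbax Extend-C18 column (2.1 × 50 mm, 1.8 μm) ran at 100 μL/min in water and acetonitrile, each containing 0.1% formic acid, with 40 μL dead volume and 900 μL dwell volume.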

| RP-LC retention time [s] | Structure (SMILES) |
| --- | --- |
| 729 | Cc1nc(C)c(C(=O)N2CC(n3cc(COc4ccc(F)cc4)nn3)C2)s1 |
| 679 | CCOC(=O)C1=C(CN2CCCCCC2)NC(=O)NC1c1ccc(OC(C)C)cc1 (centres undefined) |
| 946 | CN1C(=O)C2CCCCN2c2ccc(C(=O)N3CCc4ccccc4C3)cc21 (centres undefined) |
| 645 | O=C(CCc1cc2ccccc2[nH]c1=O)N1CCN(c2ncccn2)CC1 |
| 1030 | CCn1c(=O)c(N2CCN(C(=O)Nc3cccc(Br)c3)CC2)nc2ccccc21 |
| 716 | Cc1csc(-c2cn(CC(=O)NCc3cccc(C(F)(F)F)c3)cn2)n1 |
| 939 | O=C(NC1CCCCC1)N1CCC(c2noc(-c3ccccc3)n2)C1 (centres undefined) |
| 798 | CC(C)N1C(=O)c2cccnc2Sc2cc(NC(=O)C3CCC3)ccc21 |
| 580 | Cc1ccc2c(Nc3ccc(CC(=O)O)cc3)c(C(=O)N3CCCCC3C)cnc2n1 (centres undefined) |
| 949 | O=C(Nc1ccc2c(c1)CCCN2S(=O)(=O)c1ccccc1)OCc1ccccc1 |
| 601 | CN1CCN(c2ccc(NC(=O)C(C)(C)C)c(C(=O)O)c2)CC1 |
| 681 | CCc1nnc([C@@H]2CC(F)(F)CN2C(=O)Cc2c(C)noc2C)o1 |
| 784 | O=C(NC1CCCCC1)C1CCN(C(=O)c2ncn3c2COC(c2ccc(F)cc2)C3)CC1 (centres undefined) |
| 1030 | C=C(C)CSc1nnc(-c2ccc(OC)cc2)o1 |
| 1000 | CCN1C(=O)COc2ccc(-c3noc(COc4ccc(OC)cc4)n3)cc21 |
| 768 | O=C(Cn1nc2c3sc(N4CCCCC4)nc3ncn2c1=O)Nc1ccccc1 |
| 1080 | CCCNC(=O)c1cc(=O)[nH]c2c(Cl)cccc12 |
| 776 | CN1c2cc(F)ccc2C(=O)NC12CCN(C(=O)c1ccc(F)c(F)c1)CC2 |
| 1090 | CCc1cc(=O)n(CC(=O)Nc2ccc3c(c2)OCCO3)c(-c2cccc(F)c2)n1 |
| 698 | CNC(=O)c1noc([C@@H]2CC(F)(F)CN2C(=O)C2CC=CC2)n1 |
| 891 | COc1ccccc1CCNC(=O)Cn1ccc2ccccc21 |
| 569 | CC1CCCCN1CCN(CCC(=O)N1CCNCC1)C(=O)c1ccc(C(F)(F)F)cc1 (centres undefined) |

| RP-LC retention time [s] | Structure (SMILES) |
| --- | --- |
| 718 | CC(C)Oc1ccc(CN2CC[C@]3(CO)CN(Cc4ccccc4)C[C@@H]3C2)cc1 |
| 847 | CCC(C)C(NC(=O)c1ccc(C(F)(F)F)cc1)C(=O)Nc1nc2ccccc2[nH]1 (centres undefined) |
| 873 | COc1ccc(CNS(=O)(=O)c2ccc(-c3nnc(C4CCC4)o3)o2)cc1 |
| 782 | CCOc1ccnc2c1c(=O)n(CC(=O)Nc1cccc(C(F)(F)F)c1)c(=O)n2C |
| 706 | Cn1cc(CC(=O)NCc2ccc(Cl)cc2)c2cccnc21 |
| 839 | CN1C(=O)c2cc(C(=O)NCc3ccccc3F)nn2CC1(C)C(=O)NC1CCCCCC1 (centres undefined) |
| 917 | COc1ccc(NC(=O)N2CCc3cn(C)c4cccc(c34)C2)cc1Cl |
| 628 | Cc1nnc(C2CCCCCN2C(=O)c2ocnc2C)o1 (centres undefined) |
| 882 | CCn1nc(C)n2cc(S(=O)(=O)NC(C)c3ccccc3)cc2c1=O (centres undefined) |
| 690 | CCN1CCn2cc(S(=O)(=O)Nc3ccccc3OC)cc2C1=O |
| 879 | CC(C)NC(=O)C1CCN(c2nc3ccc(-c4cccs4)nc3s2)CC1 |
| 737 | Cc1noc(-c2nn(C)c3c2CN(C(=O)c2cc(F)ccc2F)CC3)n1 |
| 681 | CCOC(=O)C1=C(CN2CCC(c3ccccc3)C2)NC(=O)NC1c1cccs1 (centres undefined) |
| 762 | Cn1c(-c2cccc(C(=O)NCc3cc(F)cc(F)c3)c2)nc2cccnc21 |
| 569 | COC(=O)c1ccc(NC(=O)CN2CCc3[nH]c4c(C)c(Cl)ccc4c(=O)c3C2)cc1 |
| 598 | O=C(NCC1CCCO1)c1ccc2c(c1)NC(=O)C1CCC(=O)N21 (centres undefined) |
| 666 | CCn1cnc(S(=O)(=O)N2CCC(C(=O)Nc3ccc(OC)cc3)CC2)c1 |
| 806 | O=c1[nH]c2ccccc2c2ccccc12 |
| 788 | CCc1cccc(C)c1Nc1c(-c2ccc(OC)cc2)nc2ncccn12 |
| 1260 | CC1CCCCC1NC(=O)c1sc2ncccc2c1-n1cccc1 (centres undefined) |
| 622 | CN(C)c1ccc(CN2C(=O)CN(S(C)(=O)=O)CC2(C)C(=O)NCc2ccccc2)cc1 (centres undefined) |
| 707 | Cc1ccc(-c2nc3ccccn3c2NC(=O)Nc2cc(F)ccc2F)cc1 |

| RP-LC retention time [s] | Structure (SMILES) |
| --- | --- |
| 1190 | CCOc1ccc(OCC)c(NC(=O)CSc2nccnc2Oc2ccccc2)c1 |
| 776 | C=CCNC(=O)c1cnn(-c2cc(-c3nc(C(C)C)no3)ccn2)c1C |
| 731 | CC(C)(C)NC(=O)c1ccc(-c2nnc3ccc(NC(=O)C4CC4)cn23)cc1 |
| 1020 | Cc1ccc(NC(=O)N2CCc3nc(-c4ccc(F)cc4)ncc3C2)cc1C |
| 1020 | COc1ccc(Cl)cc1NC(=O)Cn1cc2c(n1)CCCC2 |
| 591 | CCn1c(-c2ccccc2)cc(C(N)=O)c1C |
| 941 | COc1ccc(S(=O)(=O)N2CCCC(C(=O)Nc3ccc4c(c3)OCO4)C2)cc1Cl (centres undefined) |
| 717 | O=C(Nc1nccs1)C1CCN(C(=O)Cc2c(F)cccc2Cl)CC1 |
| 661 | O=C(NCc1cc(F)cc(F)c1)c1ccnc(N2CCNC(c3ccccc3)C2)c1 (centres undefined) |
| 617 | Cc1ccc(-c2[nH]ncc2CN2C[C@@H]3CCN(S(C)(=O)=O)C[C@]3(CF)C2)cc1C |
| 655 | Cc1oc(-c2[nH]ncc2C(=O)N2CCCC2)cc1S(=O)(=O)NCCCOC(C)C |
| 922 | CCC1Oc2ccc(S(=O)(=O)N3CCC(C(=O)NCc4ccc(F)cc4)CC3)cc2NC1=O (centres undefined) |
| 651 | CCn1c(C)nnc1SCc1nc(-c2ccc(OC)c(OC)c2)oc1C |
| 1010 | O=C(Cc1cccs1)N1CCN(S(=O)(=O)c2cc(-c3noc(C4CCC4)n3)cs2)CC1 |
| 1060 | CC1CCCCN1S(=O)(=O)c1cc(-c2nnc(C3CCCC3)o2)co1 (centres undefined) |
| 818 | COc1ccc(Nc2c(-c3ccc(SC)cc3)nc3cnccn23)cc1OC |
| 713 | CC(C)CC(=O)Nc1ccc(N2CCOCC2)cc1C(=O)O |
| 671 | Cc1ccccc1N1OC2C(=O)N(c3ccc(F)cc3)C(=O)C2C1c1ccncc1 (centres undefined) |
| 679 | Cc1ccc(CNC(=O)c2csc(-c3ccc(N4CCCC4)nc3)n2)o1 |
| 611 | CCOc1ccc(S(=O)(=O)N2CCC3(CCC(CN4CCN(C)CC4)O3)CC2)cc1 (centres undefined) |
| 701 | O=C(NCc1cccc(F)c1)C1CCCN(c2nnc3c(Cl)cccn23)C1 (centres undefined) |
| 690 | Cc1ccc(NS(=O)(=O)c2cc(-c3[nH]ncc3C(=O)N(C)C)oc2C)cc1 |

| RP-LC retention time [s] | Structure (SMILES) |
| --- | --- |
| 981 | O=C(c1ccc(Cl)cc1Cl)N1CCN(c2cc(-c3ccc(Cl)cc3)[nH]n2)CC1 |
| 879 | CCN1C(=O)COc2ccc(-c3noc(C4CC(=O)N(c5ccccc5)C4)n3)cc21 (centres undefined) |
| 712 | CCOC(=O)c1c(C)oc2nc(C)nc(NCC3CCN(Cc4ccc(F)cc4)CC3)c12 |
| 842 | CCc1ccc(NC(=O)C2CCCN2S(=O)(=O)c2cc3c(cc2C)NC(=O)C(C)O3)cc1 (centres undefined) |
| 764 | Cc1sc2ccn(Cc3ccc(F)cc3)c(=O)c2c1C(=O)N1CCCC1 |
| 771 | O=S(=O)(c1ccc(-c2nnc(C3CC3)o2)o1)N1CCCC1 |
| 578 | Cn1nccc1C(=O)N1CCC(Cc2nc(C3CC3)n[nH]2)C1 (centres undefined) |
| 791 | O=C(NCc1cc(F)cc(F)c1)C1CCN(c2ccc(SCc3ccccc3)nn2)CC1 |
| 954 | CN(CCc1noc(-c2ccccc2)n1)C(=O)Nc1ccc(F)c(Cl)c1 |
| 1020 | CC(C)(C)c1ccc(O)c(CN(Cc2cc(C(C)(C)C)ccc2O)C2CCCCC2)c1 |
| 775 | Cn1cc(-c2cc3n(n2)CCC(=O)N3CCCC(=O)NCc2ccco2)c2ccccc21 |
| 967 | COc1ccccc1CNS(=O)(=O)c1ccc(F)c(C(=O)Nc2cc(C)ccc2C)c1 |
| 1240 | O=S(=O)(c1ccc2nc(N3CCN(c4cccc(Cl)c4)CC3)ccc2c1)N1CCCCC1 |
| 679 | CCn1nc(C)c(-c2cc(C(=O)NCC3Cn4cccc4C(=O)N3C)no2)c1C (centres undefined) |
| 856 | COc1cccc2cc(C(=O)N3CC(c4nc(-c5cccs5)no4)C3)oc12 |
| 784 | CCOc1ccc(NC(=O)C2CCN(S(=O)(=O)c3cn(CC)cn3)CC2)cc1 |
| 953 | Cc1ccc(C)c(NC(=O)C2CCN(S(=O)(=O)c3cc(-c4noc(C)n4)cs3)CC2)c1 |
| 877 | CCN1C(=O)c2cccnc2Sc2cc(NC(=O)C3CCCCC3)ccc21 |
| 1020 | COc1ccc(-n2ccnc(NC(=O)Nc3ccc(F)c(Cl)c3)c2=O)cc1 |
| 899 | Cn1cccc1CN(Cc1cccs1)C(=O)Cn1c(=O)oc2ccccc21 |
| 773 | O=[N+]([O-])c1cc(F)c2cccnc2c1O |

| Structure (SMILES) | RP-LC retention time [s] |
| --- | --- |
| O=C(c1ccco1)N1[C@H]2CC[C@@H]1c1cnc(-c3ccc(F)cc3)nc1C2 | 858 |
| O=C(CCc1nc(C2=CCN(Cc3ccc(Cl)cc3)CC2)no1)NCc1cccs1 | 688 |
